Reference: PubChem BioAssay AID1949 (Southern Research Institute, 2009)
Values after ≈ are worked out from the molar mass of the structure shown. Results filed as inconclusive are left out. Active and inactive are the calls of the source. The rule behind the calls is not given here.

System: M. tuberculosis H37Rv growth inhibition
Experiment: Confirmatory growth inhibition assay against Mycobacterium tuberculosis H37Rv, potency (AID 1949);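 note: bacteria grown 7 days with compound before Alamar blue readout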

SMILES	IC50
CCOc1cc(CNCc2ccccc2OCc2ccccc2)cc(Cl)c1OCC	1.94 mg/L (≈ 4.55 µM)
CCC1CCCCN1C(=S)NC(=O)c1ccc(F)cc1 (stereo unspecified)	0.73 mg/L (≈ 2.48 µM)
O=C(Nc1ccn(Cc2ccc(Cl)cc2)n1)c1ccc2c(c1)OCO2	2.43 mg/L (≈ 6.83 µM)
Cc1cccc(-n2c(N)cc(=O)nc2SCC(=O)Nc2nc(-c3ccccc3)cs2)c1	3.08 mg/L (≈ 6.85 µM)
CCC(C)c1ccccc1OCC(=O)Nc1cccc(-c2nnc(-c3ccco3)o2)c1 (stereo unspecified)	8.07 mg/L (≈ 19.3 µM)
COC(=O)COc1ccc2c(=O)c(Oc3ccccc3F)c(C)oc2c1C	6.55 mg/L (≈ 17.6 µM)
COc1cccc(OCC(=O)c2ccc(Br)cc2)c1	0.37 mg/L (≈ 1.15 µM)
Cc1cc2c(cc1C)N(Cc1ccc(C(C)(C)C)cc1)C1=NCCCN12	1.2 mg/L (≈ 3.45 µM)
O=S(=O)(CCSc1nc2ccccc2o1)c1nc2ccccc2s1	11.1 mg/L (≈ 29.5 µM)
Cc1ccc(O)c(C2=NNC(c3ccc(Cl)cc3)C2)c1 (stereo unspecified)	4.76 mg/L (≈ 16.6 µM)
Cc1cccc(COc2ccc(/C=C/[N+](=O)[O-])cc2)c1	21.4 mg/L (≈ 79.5 µM)
CCn1c(/C=C/c2ccc(F)cc2)nc2ccccc21	8.17 mg/L (≈ 30.7 µM)
COc1ccc(-c2cc(=O)oc3cc(OCC(=O)OCc4ccccc4)ccc23)cc1	16.4 mg/L (≈ 39.3 µM)
C=CCN(CC=C)C(=S)NC(=O)c1ccc(OC)cc1	> 50 mg/L (inactive)
CCCCOc1ccc(NC2=NC3(CCCCC3)N=C(N)N2)cc1	12.1 mg/L (≈ 36.6 µM)
CCC(C)c1ccc(OCCn2ccnc2)cc1 (stereo unspecified)	2.73 mg/L (≈ 11.2 µM)
CC(C)(C)c1ccc(Cn2cnc([N+](=O)[O-])n2)cc1	< 0.1 mg/L
Cc1ccc2c(c1)c1c(n2CC(O)CN2CCCCCC2)C(=O)CCC1 (stereo unspecified)	6.18 mg/L (≈ 17.4 µM)
COC(=O)c1ccc(OC(=O)c2c(F)c(F)c(F)c(F)c2F)cc1	9.14 mg/L (≈ 26.4 µM)
N#Cc1c(C(F)(F)F)cc(-c2cccs2)nc1SCC(O)CN1CCSCC1 (stereo unspecified)	10.9 mg/L (≈ 24.6 µM)
CCCOc1ccccc1NC(=O)Nc1ccc(Cl)c(Cl)c1	1.71 mg/L (≈ 5.04 µM)
O=C(/C=C/c1cccc(C(F)(F)F)c1)Nc1cccc(C(F)(F)F)c1	0.9 mg/L (≈ 2.51 µM)
CCN(CC)CCSc1nc2sc3c(c2c(=O)n1-c1ccc(OC)cc1)CCCC3	> 50 mg/L (inactive)
c1ccc2cc3nc4c(ccc5ccccc54)nc3cc2c1	< 0.1 mg/L
Cc1ccc([N+](=O)[O-])cc1S(=O)(=O)Nc1cc(Br)c(O)c2ccccc12	11 mg/L (≈ 25.1 µM)

SMILES	IC50
COc1cccc(Nc2nc(-c3ccccn3)cs2)c1	0.17 mg/L (≈ 0.6 µM)
CC(C)(C)c1ccc(C(=O)NC(=S)Nc2ccc(C(=O)O)cc2)cc1	0.64 mg/L (≈ 1.8 µM)
O=c1c2cccc3c2c(nn1CCN1CCCCC1)-c1ccccc1-3	2.84 mg/L (≈ 8.57 µM)
Clc1ccc(OCCCCCn2ccnc2)c(Cl)c1	3.48 mg/L (≈ 11.6 µM)
CCCCn1c(O)c(/C=C2\C=CC=N2)c(=O)[nH]c1=O	< 0.1 mg/L
Cc1cc(C)c2c(N)c3cccc(C)c3nc2n1	> 50 mg/L (inactive)
CN1C(=O)N(C)c2ccc(C=O)c3cccc1c23	> 50 mg/L (inactive)
CC1=CC(C)(C)N2C(=O)C(=O)c3cc(OC(=O)c4ccccc4C)cc1c32	8.23 mg/L (≈ 22.8 µM)
COc1ccc(-c2c(C)oc3cc(OCC(=O)OC(C)C)ccc3c2=O)cc1OC	1.36 mg/L (≈ 3.3 µM)
Cc1c(Cl)c(C(F)(F)F)nn1CCCNC(=S)NCc1ccc(Cl)cc1	11.2 mg/L (≈ 26.2 µM)
O=c1c2oc3cccc4c3n(c=2c(=O)c2ccccc12)CCC4	5.4 mg/L (≈ 17.8 µM)
O=C1c2ccc(-c3nc4ccccc4c(=O)o3)cc2C(=O)N1Cc1ccccc1	> 50 mg/L (inactive)
Cc1ccc2oc(=O)n(CCCOc3ccc(Cl)cc3)c2c1	2.98 mg/L (≈ 9.38 µM)
COC(=O)c1ccc(NC(=O)CSc2nnc(Cc3ccc(OC)cc3)o2)cc1	11.1 mg/L (≈ 26.8 µM)
CCCCOc1ccc(S(=O)(=O)Nc2ccc(I)cc2)cc1	2.84 mg/L (≈ 6.58 µM)
O=C(CSc1nnc(-c2ccccc2)o1)Nc1ccc2ccccc2c1	1.02 mg/L (≈ 2.82 µM)
CC1CCc2nc3sc4c(c3c(N)c2C1)CCCC4 (stereo unspecified)	1.06 mg/L (≈ 3.89 µM)
CCCn1nnc(NC(=O)COc2ccc(C3CCCCC3)cc2)n1	0.64 mg/L (≈ 1.86 µM)
Cc1cc(C)c2[nH]c3ccccc3c2n1	1.3 mg/L (≈ 6.62 µM)
O=C(Nc1ccccc1Cl)c1cc2cc(Cl)cc(Cl)c2oc1=O	> 50 mg/L (inactive)
O=C(Nc1cccc(Cl)c1)Nc1ccc(N2CCOCC2)c(C(F)(F)F)c1	3.59 mg/L (≈ 8.98 µM)
O=c1oc(-c2ccccc2Br)nc2sc3c(c12)CCCC3	0.98 mg/L (≈ 2.71 µM)
Clc1ccc(OCCCNCc2ccccc2)c2ccccc12	1.36 mg/L (≈ 4.17 µM)
COc1cccc(CN2CCN(C(=O)Nc3ccc(Cl)c(Cl)c3)CC2)c1	5.13 mg/L (≈ 13 µM)
CN(C)c1ccc(Nc2nc(-c3ccc(O)cc3O)cs2)cc1	1.54 mg/L (≈ 4.7 µM)

SMILES	IC50
Nc1nc2ccccc2n1CCOc1ccc(Cl)cc1Cl	3.85 mg/L (≈ 11.9 µM)
O=C(Nc1ccc2c(c1)OCCO2)NC12CC3CC(CC(C3)C1)C2	4.52 mg/L (≈ 13.8 µM)
CCOC(=O)c1c(NC(=O)CN2CCN(C)CC2)sc2c1CCC(C)C2 (stereo unspecified)	5.8 mg/L (≈ 15.3 µM)
c1cc2[nH]onc2c2c3c(nc12)CCCC3	8.28 mg/L (≈ 38.8 µM)
O=C(Nc1ccc(Cl)c(C(F)(F)F)c1)c1csc2c1CCCC2	2.66 mg/L (≈ 7.39 µM)
O=C(Nc1ccc(Nc2ccccc2)cc1)C(Cl)Cl	6.79 mg/L (≈ 23 µM)
CNCCCOc1ccc(Cl)cc1C(C)(C)C	7.95 mg/L (≈ 31.1 µM)
O=C1c2ccccc2C(=O)c2c1nc1ccccn21	2.87 mg/L (≈ 11.6 µM)
CCC(C)c1ccccc1OCCCNC1CCCC1 (stereo unspecified)	8.81 mg/L (≈ 32 µM)
COc1cccc(C(=O)Nc2ccc(Cl)c(C(F)(F)F)c2)c1OC	14.5 mg/L (≈ 40.3 µM)
Cc1cc(N)cc(-c2nc3ccccc3o2)c1O	16.4 mg/L (≈ 68.4 µM)
Oc1cccc(Nc2nc(NCc3ccccc3)c3ccccc3n2)c1	0.98 mg/L (≈ 2.86 µM)
S=C(NCCc1ccccc1)Nc1ccc(Nc2ccccc2)cc1	3.85 mg/L (≈ 11.1 µM)
CCOC(=O)COc1ccc2c3c(c(=O)oc2c1)CCCCC3	2.73 mg/L (≈ 8.63 µM)
CCC(C)NCCCCOc1ccc(Cl)cc1C(C)(C)C (stereo unspecified)	4.49 mg/L (≈ 14.4 µM)
Cc1cccc(NC(=O)c2cc3cc([N+](=O)[O-])ccc3oc2=O)c1	> 50 mg/L (inactive)
CCCCSc1ccc(NCCC(=O)c2ccco2)cc1	0.42 mg/L (≈ 1.38 µM)
CC(=O)OCC#CCSc1nnc(-c2ccc(Br)cc2)o1	< 0.1 mg/L
Fc1ccc(C2=NN(c3ccc(Cl)cc3)C(c3cccs3)C2)cc1 (stereo unspecified)	5.63 mg/L (≈ 15.8 µM)
O=C(OCc1ccc(S(=O)(=O)c2ccccc2)cc1)c1ccccc1Br	8.37 mg/L (≈ 19.4 µM)
Brc1ccc(-c2nn(-c3ccccc3)cc2CNCc2ccccc2)cc1	1.24 mg/L (≈ 2.96 µM)
CCOC(=O)c1c(-c2ccccc2)oc2ccc(O)c(CN3CCCC3)c12	3.37 mg/L (≈ 9.22 µM)
CCOc1ccc(OCC(=O)Nc2cc(C)cc(C)c2)cc1	1.51 mg/L (≈ 5.04 µM)
O=C(CC(O)(C(F)(F)F)C(F)(F)F)Nc1cc(Cl)ccc1Cl	5.84 mg/L (≈ 15.8 µM)
O=C(Nc1nc2ccccc2[nH]1)c1cccc(Cl)c1	10.4 mg/L (≈ 38.3 µM)

SMILES	IC50
N#Cc1ccc(Sc2nc3ccccc3o2)c([N+](=O)[O-])c1	> 50 mg/L (inactive)
O=C(NCCCn1ccnc1)c1cc(-c2ccc(Br)cc2)nc2ccccc12	9.43 mg/L (≈ 21.7 µM)
O=C(NC(=S)N1CCc2ccccc21)c1ccco1	5.64 mg/L (≈ 20.7 µM)
Cc1cccc(OCCn2cnc3cc(C)c(C)cc32)c1	4.52 mg/L (≈ 16.1 µM)
CCc1nc2ccccc2n1CC(O)COc1ccc(I)cc1 (stereo unspecified)	1.97 mg/L (≈ 4.67 µM)
Cc1cc(OCCn2ccnc2)ccc1Cl	2.77 mg/L (≈ 11.7 µM)
CC(=O)c1ccc(S(=O)(=O)c2ccc(C)cc2)c([N+](=O)[O-])c1	2.94 mg/L (≈ 9.21 µM)
COC(=O)CSc1nnc(NC(=O)c2ccc(C(C)(C)C)cc2)s1	< 0.1 mg/L
c1ccc(COc2ccc(OCCCCn3ccnc3)cc2)cc1	5.37 mg/L (≈ 16.7 µM)
CCCC(=O)N1CCN(c2ccc(NC(=O)COc3ccc(C(C)CC)cc3)cc2Cl)CC1 (stereo unspecified)	11.3 mg/L (≈ 24 µM)
CCOC(=O)c1c(C)n(Cc2ccccc2)c2ccc(OCC(O)CNC(C)(C)C)cc12 (stereo unspecified)	4.28 mg/L (≈ 9.76 µM)
CCc1ccc(OCC(=O)NNC(=O)c2cnccn2)c(Br)c1	1.12 mg/L (≈ 2.95 µM)
Cc1ccc(C(C)C)c(OCCNCc2ccccc2)c1	> 50 mg/L (inactive)
Clc1ccc(OCCn2ccnc2)cc1Cl	7.53 mg/L (≈ 29.3 µM)
O=C(CCC(=O)OCc1cccc(C(=O)Oc2ccccc2)c1)Nc1cccc2ccccc12	12.6 mg/L (≈ 27.8 µM)
COC(=O)C(C)Oc1ccc2c(=O)c(-c3ccc(Cl)cc3)coc2c1 (stereo unspecified)	4.23 mg/L (≈ 11.8 µM)
CC(=O)Oc1cc2c(cc1Cl)C1(CC(c3ccccc3Cl)O2)CC(C)(C)NC(=S)N1 (stereo unspecified)	2.84 mg/L (≈ 6.1 µM)
COc1ccc(OC(C)C(=O)Nc2ccc(I)cc2)cc1 (stereo unspecified)	0.32 mg/L (≈ 0.806 µM)
NC(=O)CSc1nnc(SCc2ccc(F)cc2)s1	9.02 mg/L (≈ 28.6 µM)
COc1ccc(OCC(=O)NNC(=S)NC(=O)C(C)(C)C)cc1	0.13 mg/L (≈ 0.383 µM)
CCOC(=O)COc1ccc2c(=O)c(Oc3cccc(OC)c3)coc2c1	27.2 mg/L (≈ 73.4 µM)
COc1cccc(NC(=O)CSc2nnc(-c3ccc(Br)cc3)o2)c1	3.12 mg/L (≈ 7.42 µM)
COc1ccc(-c2nc(-c3ccc(O)cc3O)cs2)cc1OC	0.17 mg/L (≈ 0.516 µM)
Cc1ccc(Cl)cc1N1CCN(CC(O)COCC2COc3ccccc3O2)CC1 (stereo unspecified)	5.17 mg/L (≈ 11.9 µM)
COC(=O)COc1ccc(C2CCCCC2)cc1	1.46 mg/L (≈ 5.88 µM)

SMILES	IC50
O=C(Oc1c(Cl)cc(Cl)c2cccnc12)c1ccccc1[N+](=O)[O-]	0.2 mg/L (≈ 0.551 µM)
COc1ccc(CNC(=O)c2sc3nc4c(c(C(F)(F)F)c3c2N)CC(C)CC4)cc1OC (stereo unspecified)	> 50 mg/L (inactive)
O=C1c2cccc3cccc(c23)C(=O)N1CCN1CCN(CCc2ccccc2)CC1	23.8 mg/L (≈ 57.5 µM)
N#Cc1ccc(-c2ccc(OCC(N)=O)cc2)cc1	< 0.1 mg/L
O=C(Nc1nccs1)c1ccc(CSc2ccccc2)o1	3.09 mg/L (≈ 9.77 µM)
O=C1NC(=O)N(c2ccc(Cl)cc2)C(=O)/C1=C\c1ccc([N+](=O)[O-])s1	5.58 mg/L (≈ 14.8 µM)
CCOc1ccc(N2C(=O)CC(Nc3ccccc3O)C2=O)cc1 (stereo unspecified)	4.58 mg/L (≈ 14 µM)
O=C(Nc1ccc(Br)c(C(F)(F)F)c1)c1ccccc1	3.26 mg/L (≈ 9.47 µM)
Cc1ccc(N2CCN(CCNC(=S)Nc3cccc(C)c3C)CC2)c(Cl)c1	8.3 mg/L (≈ 19.9 µM)
COc1cc(CNCCO)cc(Cl)c1OCc1ccc(Cl)cc1Cl	5.72 mg/L (≈ 14.6 µM)
O=S1(=O)C=CC2ON=C(c3c(Cl)cccc3Cl)C21 (stereo unspecified)	10.8 mg/L (≈ 35.6 µM)
Cc1cc(OC(F)F)ccc1NC(=O)Nc1ccc([N+](=O)[O-])cc1	22.9 mg/L (≈ 67.9 µM)
CC(=O)NC(=S)NNC(=O)c1ccc(C)c(Br)c1	1.77 mg/L (≈ 5.36 µM)
COC(=O)COc1ccc(-c2ccc(C)cc2)cc1	0.22 mg/L (≈ 0.858 µM)
Cc1ccc(SCC(=O)Nc2cccc(C)c2)cc1	10.9 mg/L (≈ 40.2 µM)
CCCCCn1c(NCc2cccs2)nc2ccccc21	3.41 mg/L (≈ 11.4 µM)
CCOc1ccc(C(=O)NC(=S)Nc2ccc(N3CCN(C)CC3)c(Cl)c2)cc1Cl	> 50 mg/L (inactive)
Clc1ccc(-c2csc(-c3cccnc3)n2)cc1	5.82 mg/L (≈ 21.3 µM)
Oc1ccc(-c2nc3cc4ccccc4cc3nc2-c2ccccc2)cc1	0.96 mg/L (≈ 2.76 µM)
Oc1ccccc1-c1n[nH]c(/C=C/c2ccccc2Cl)n1	6.45 mg/L (≈ 21.7 µM)
c1ccc(COc2ccc3ccccc3c2CNCc2cccnc2)cc1	7.91 mg/L (≈ 22.3 µM)
